One may read the IC50 as the concentration at which inhibition is half-maximal.

Structures are written as SMILES.

This note sets out measurements from ChEMBL document CHEMBL5390228, “Unnatural Endotype B PPAPs as Novel Compounds with Activity against Mycobacterium tuberculosis” (J Med Chem, 2023).

The assay concerns Mycobacterium tuberculosis. The experiment in a line: Antimicrobial activity in INH-resistant Mycobacterium tuberculosis ATCC 35822 infected in human Primary macrophage cells assessed as reduction in intracellular growth of bacteria incubated for 4 days by CFU assay. Type of assay: functional, organism-based. To be noted: ATCC 35822, Primary macrophage, 96 h.

For the molecule `C=CC[C@@]12C[C@H](CC=C(C)C)C(C)(C)[C@@](CC=C)(C(=O)C(C(C)=O)=C1[O-])C2=O.[Na+]`, the IC50 was 15.9 µM.
